Key:
[1] = biological target: DhaA enzyme (Rhodococcus rhodochrous, UniProt P0A3G2); test: Cell free peptide/DhaA conversion, Mass Shifted Peptide Theoretical Max signal (Example 6); format: biochemical; details: DhaA converts —Cl input agent into —OH product agent, MS signal
Procedure: For the cell free systems, DPLs were diluted in a 500 μL DPW plate (library dilution plate). Individual peptides were diluted individually in low-bind tubes until making the final working dilution in PBS. At this point, the individual peptides were transferred to the library dilution plate. By having all final dilutions in one plate, a multichannel was used to transfer the diluted peptides to the cell free plates. The same design as “Source Plate” was used for the cell assay. For the peptide only plate, 45 μL of PBS was added to each well and 5 μL of the diluted library/peptide was added in triplicates. For peptide/DhaA plate, 5 μL of 50 μM DhaA enzyme was added, followed by 40 μL of PBS and 5 μL of the diluted library/peptide. Both plates were kept at the bench top thermomixer at 350 rpm and 37 ° C. overnight. The next day, 2 mL of a cell free solution was prepared with 1 mL of DMSO, 20 μL of PepMix and 980 μL of a 1:1 ratio of ACN/0.1% FA and H2O/0.1% FA. 5 μL of the cell free solution was added to a 384 well plate, followed by 45 μL of the cell free sample.
(§1) Once all samples were added (including cell free), the plate was placed in an autosampler of a mass spectrometer. For the mass spectrometry analysis, methods from example 1 were employed.
Results from certain assessment were presented blow. Cell crash method was utilized. Mass Shifted Peptide Theoretical Max signal is signal of an agent comprising —OH obtained when using the DhaA to convert input agent comprising —Cl into product agent comprising —OH form without involving cells (multiple agents may be converted simultaneously; in some embodiments, can be performed library by library). In some embodiments, each library pool plus positive and negative references was tested in a single well, which in some cases contain about a million or so cells. Each library pool is an individually prepared library with no purifications—all members mixed together along with side products, etc. “Cell Penetration Score” is calculated by dividing “Mass Shifted Peptide Signal in Cells” by “Mass Shifted Peptide Theoretical Max Signal” for each pair of replicates, then averaging those values across replicates; additionally or alternatively, COR and/or RPF may also be utilized.

[2] = tested on: Expi293 cells transfected with His-Halotag; test: Library cell penetration assay, cell crash method (Example 6); format: in vitro ADME, human; details: for Peptide Signal in Cells (from cells; agents comprising —Cl): MS signal of unconverted —Cl agent from cells; for Peptide Signal in Cells (from cells; agents comprising —Cl) / Mass Shifted Peptide Signal in Cells: library pool or individual peptide; for Mass Shifted Peptide Signal in Cells: MS signal of —OH agent from cells; for Cell Penetration Score: Mass Shifted Peptide Signal in Cells divided by Mass Shifted Peptide Theoretical Max Signal, averaged across replicates
Procedure: Animal cells (e.g., Expi293 cells or human HEK 293 cells) were seeded in tissue culture plates and cultured in Opti-MEM media. The cells were set in PETG flasks at a concentration of 6×10^5 cells/mL and a volume of 30 mL. The cell viability was checked to be above 90-93%. The flasks were placed in a shaking incubator at 300 rpm in 8% CO2.
After 24 hours of incubation, for each flask, one 1.5-mL Lo-bind tube and one 2-mL Lo-Bind tube were prepared. In the 1.5-mL tube, 30 μg of polyhistidine-tagged halotag (His-Halotag) plasmid and Opti-MEM media were added to provide a 1-mL mixture. In the 2-mL Lo-Bind tube, 60 μL of ExpiFectamine and 940 μL of Opti-MEM were added. After 5 minutes, the plasmid/Opti-MEM mixture was added to the ExpiFectamine/Opti-MEM mixture. The combined mixture was placed in an incubator at room temperature for 20 minutes, which was subsequently added to the flask.
After 48 hours of transfection, the transfected cells were checked for viability (90% or higher). The transfected cells were transferred to a protein Lo-Bind Eppendorf 96-well deep well plate (1000 μL), where each well contained 1 million cells in 500 μL of Expi293 media.
Solutions of candidate compounds, either individual peptides or peptides from a peptide library (DPLs), were received at a stock concentration of 10 mM and diluted in DMSO and kept in a “Source Plate”. For DPLs, the peptide concentration in the “Source Plate” was 1 mM, whereas for individual peptides, the concentration was either 100 μM (for a final concentration of 100 nM) or 10 μM (for a final concentration of 10 nM). […] of the DPL or individual peptide solution was added in triplicates to the 96-well plate. The cells were kept in a shaking incubator at 300 rpm and 37 ° C., 8% CO2 overnight for about 18-20 hours.
The following day, one of the following two methods was performed: i) capture beads method or ii) cell crash method.
Cell crash method: the 96-well plate was placed in the centrifuge at 300 g for 5 minutes. 720 μL of the supernatant was removed. The cells were resuspended in residual 200 μL of media. The suspensions were transferred to a 96-well v-bottom plate, which was placed in the centrifuge at 300 g for an additional 5 minutes. All remaining media was removed. The cell pellets were washed with 200 μL of PBS, mixed and placed back in the centrifuge at 300 g and 4 ° C. for an additional 5 minutes. The supernatant was removed and 80 μL of PBS was added.
80 μL of eluted proteins/peptides from the capture beads method or the PBD solution from the cell crash method was transferred into a deepwell low binding plate (500 μL). 80 μL of ammonium hydroxide was added. The plate was kept on a shaker at 37 ° C. for 3 hours. The plate was dried in a speedvac overnight.
The following day, the dried cell pellet was resuspended in 70 μL of 47.5% water with 0.1% FA/47.5% ACN with 0.1% FA/10 μM pepmix (10 mM stock)/5% fresh DMSO. The mixture was let sit in the plate for 1 hour to allow the dissolution of the pellet. If the sample appeared cloudy, more resuspension solution was added (50 μL at a time). 50 μL was transferred directly to the mass spec plate and the plate was sealed with the 384-well plate seal.
as §1
Results from certain assessment were presented blow. Cell crash method was utilized. Mass Shifted Peptide Theoretical Max signal is signal of an agent comprising —OH obtained when using the DhaA to convert input agent comprising —Cl into product agent comprising —OH form without involving cells (multiple agents may be converted simultaneously; in some embodiments, can be performed library by library). In some embodiments, each library pool plus positive and negative references was tested in a single well, which in some cases contain about a million or so cells. […]

Chain of DhaA enzyme (P0A3G2 whole entry): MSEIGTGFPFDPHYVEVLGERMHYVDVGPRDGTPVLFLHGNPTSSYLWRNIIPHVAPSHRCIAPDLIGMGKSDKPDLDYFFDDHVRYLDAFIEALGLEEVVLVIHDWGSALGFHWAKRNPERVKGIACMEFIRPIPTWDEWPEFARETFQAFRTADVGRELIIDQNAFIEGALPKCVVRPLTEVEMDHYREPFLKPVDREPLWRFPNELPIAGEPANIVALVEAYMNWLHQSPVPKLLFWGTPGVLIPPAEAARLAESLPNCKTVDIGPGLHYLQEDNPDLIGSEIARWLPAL

Substance | Mass Shifted Peptide Theoretical Max Signal [1] | Peptide Signal in Cells (from cells; agents comprising —Cl) [2] | Mass Shifted Peptide Signal in Cells [2] | Cell Penetration Score [2]
HaloTagO2-Leu-Thr-Phe-ReN-Glu-Tyr-Trp-Ala-Gln-Cba-Az-Ser-Ala-Ala-NHMe [PEP000131] | 3E+06 | 0E+00 | 1E+05 | 3
HaloTagO2-Leu-Thr-Phe-ReN-Glu-Tyr-Trp-Ala-Gln-Cba-Az-Ser-Ala-Ala-NHMe [PEP000136] | 4E+06 | 0E+00 | 1E+04 | 0
HaloTagO2-Leu-Thr-Phe-ReN-Glu-Tyr-Trp-Ala-Thr-Cba-Az-Ser-Ala-Ala-NH2 [PEP000134] | 6E+06 | 3E+03 | 1E+05 | 2
HaloTagO2-Leu-Thr-Phe-ReN-Glu-Tyr-Trp-Ala-Thr-Cba-Az-Ser-Ala-Ala-NHMe [PEP000137] | 6E+06 | 0E+00 | 4E+05 | 6
HaloTagO2-Leu-Thr-Phe-ReN-Thr-Tyr-Trp-Ala-Gln-Cba-Az-Ser-Ala-Ala-NH2 [PEP000129] | 6E+06 | 0E+00 | 1E+06 | 19
HaloTagO2-Leu-Thr-Phe-ReN-Thr-Tyr-Trp-Ala-Gln-Cba-Az-Ser-Ala-Ala-NHMe [PEP000132] | 6E+06 | 0E+00 | 1E+06 | 20

— patent US20230046728A1, “TECHNOLOGIES USEFUL FOR ASSESSING PERMEABILITY” (FOG PHARMACEUTICALS, INC., priority 2019, published 2023)
